As a reminder, the AC50 is the concentration giving half of the maximal activity seen.

Molecules are shown by their SMILES.

Consider 2 compounds from patent US20120302609A1, “Pyrazolines for the Modulation of PKM2” (Dynamix Pharmaceuticals LTD., priority 2011, published 2012).

Test [1] concerns the target T1, PKM2, human recombinant (Homo sapiens, UniProt P14618).
T1 construct: purchased BPS 50295
Briefly: PKM2 enzymatic activity assay (Kinase-Glo Plus luminescence).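 For Max activity Group: percent increase over no-compound signal after subtracting the no-PKM2 background.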 The class given is biochemical. Conditions: for AC50: 0.1 nM PKM2, 0.1 mM ADP, 0.5 mM PEP, 1 hour, room temperature, read-out: AC50 group; for Emax: 1 h, maximum percent activity, luminescence without compound = 0% activity, read-out: Max activity Group. The gist of the method: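 Activation assay: 0.1 nM recombinant human PKM2 with 0.1 mM ADP and 0.5 mM PEP in imidazole buffer pH 7.2, 1 hour at room temperature, in duplicate; ATP produced read by Kinase-Glo Plus luminescence. % activity relative to no-compound and no-enzyme wells; AC50 as half-maximal activation from sigmoidal fit; FBP 0.5 mM positive control.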

For test [2], the system named is BT-549 (breast). Put plainly: Cell proliferation assay (CellTiter-Glo Luminescent). It counts as cell-based. Conditions: Homo sapiens, Complete media.
Test [3] relates to H1299 (lung). Described as above. The class given is cell-based, human. Conditions: 96 hr. How it is done:
1. Cells were grown according to the ATCC conditions. 2. Cell feeding (passaging) was timed such that the cells were in exponential growth phase at the time of the assay.
3. On day 1, H1299 cells were counted. Cell numbers were adjusted to the desired cell concentration in Media 1: RPMI 1640 Invitrogen 11879020 (that contained no glucose or pyruvate) with 10% FBS, and 1 mM D-Glucose (4 μl of 2.5 M D-glucose G8769 was added in preparing 10 ml RPMI media with 1 mM glucose). A 200 μl of H1299 cell suspension was added to appropriate wells in the 96-well plates, and incubated at 37° C. in the CO2 cell incubator under normal growing conditions for overnight. 4. On day 2, a 100 mM stock concentration of test compounds in 100% DMSO was prepared and serially diluted with 100% DMSO to 33.33 mM, 11.11 mM, and 3.7 mM. A 1:1000 dilution was made to each concentration in media 1 (yielding 0.1% final DMSO concentration). The media was aspirated completely from the cell plate. Each 100 μl of the following solutions (100 μM, 33.33 μM, 11.11 μM, and 3.7 μM) was added to the cells. DMSO in a final concentration of 0.1%, and media without DMSO, were added to the cells and used as a negative control. Empty wells around the experimental wells were filled with PBS. The plate was sealed with parafilm to reduce evaporation. 5. The plate was incubated under normal conditions (5% CO2, and 95% air), for 96 hours at 37° C. 6. On day 6 (after 96 hr incubation), the plate was equilibrated to room temperature for approximately 30 minutes. A 100 μl of CellTiter-Glo Reagent was added in each well of the plate. Contents were mixed for 2 minutes on an orbital shaker to induce cell lysis. The plate was incubated at room temperature for 10 minutes to stabilize luminescent signal. Luminescence was recorded with Flexstation 3.
Unless noted otherwise, proliferation of control or compound treated H1299 cells was measured using CellTiter-Glo Luminescent assay following 96 hr incubation of the cells with and without test compounds. The AC50 values, shown in Table 3, were coded according to follows: A: <3 μM; B: 3-10 μM; C: 10-20 μM; or D: >20 μM.

In test [4] the test system is HT-29 xenograft. Put plainly: HT-29 xenograft mouse model, tumor efficacy. The class given is in vivo. Conditions: i.p. How it is done: This example illustrates the efficacy and safety of a compound according to embodiments of the present invention, i.e., Compound 1A, using a HT-29 xenograft mouse model (a colorectal cancer model).
The HT-29 cells were maintained in vitro as a monolayer culture in McCoy's 5A medium supplemented with 10% heat inactivated fetal bovine serum, 100 U/ml penicillin and 100 μg/ml streptomycin at 37° C. in an atmosphere of 5% CO2 in air. The tumor cells were routinely subcultured twice weekly by trypsin-EDTA treatment. The cells growing in an exponential growth phase were harvested and counted for tumor inoculation.
65 mice were inoculated subcutaneously at the right flank with 3.0×10^6 HT-29 tumor cells in 0.1 ml of serum-free medium for tumor development. The treatments were started when the tumor size reached approximately 75 (50-100) mm^3. The test article administration and the animal numbers in each group are shown in the following experiment design Table 5.
The major endpoint was to see if the tumor growth can be delayed or mice can be cured. Tumor size was measured three times weekly in two dimensions using a caliper, and the volume was expressed in mm^3 using the formula: V=0.5 a×b^2 where a and b are the long and short diameters of the tumor, respectively. The tumor size was then used for calculations of both T-C and TGI values. T-C was calculated with T as the median time (in days) required for the treatment group tumors to reach a predetermined size (e.g., 1,000 mm^3), and C as the median time (in days) for the control group tumors to reach the same size. The TGI (in percent)=(T−C)/C*100% represents the tumor growth inhibition rate, T and C were the mean volume of the treated and control groups, respectively, on a given day. Tumor weight was measured at the study termination. The T/C value (in percent) was calculated where T and C are the mean tumor weights of the treated and control groups, respectively.

Test [5] relates to HCT-116 (colon). Put plainly: Cell proliferation assay (CellTiter-Glo Luminescent). Conditions: Homo sapiens, 1 mM glucose, 96 hr. It counts as cell-based. (In general: In ATP-based viability assays light output follows the ATP content of the culture.)
Test [6] deals with PKR (Homo sapiens, UniProt P30613). Put plainly: Isoform selectivity of pyruvate kinases. It counts as biochemical.
Chain of PKR (P30613 whole entry, canonical isoform): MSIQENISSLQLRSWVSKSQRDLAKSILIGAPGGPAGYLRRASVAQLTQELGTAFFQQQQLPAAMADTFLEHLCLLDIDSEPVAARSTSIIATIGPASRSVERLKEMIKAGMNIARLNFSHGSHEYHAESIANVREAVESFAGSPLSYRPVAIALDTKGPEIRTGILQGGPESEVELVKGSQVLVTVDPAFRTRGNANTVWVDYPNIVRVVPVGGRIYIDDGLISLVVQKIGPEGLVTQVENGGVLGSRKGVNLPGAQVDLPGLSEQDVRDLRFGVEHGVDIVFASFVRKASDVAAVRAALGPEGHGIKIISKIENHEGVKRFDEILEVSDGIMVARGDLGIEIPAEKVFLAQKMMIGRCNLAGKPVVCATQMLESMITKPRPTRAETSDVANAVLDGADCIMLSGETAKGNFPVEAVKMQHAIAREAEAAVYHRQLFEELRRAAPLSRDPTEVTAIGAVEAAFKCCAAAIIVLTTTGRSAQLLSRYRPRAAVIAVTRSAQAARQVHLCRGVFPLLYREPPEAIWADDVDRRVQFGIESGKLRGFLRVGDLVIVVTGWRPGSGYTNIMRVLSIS
[7] abbreviates: Homo sapiens, NCI-H1299, 1 mM glucose.

T1 sequence (P14618 whole entry): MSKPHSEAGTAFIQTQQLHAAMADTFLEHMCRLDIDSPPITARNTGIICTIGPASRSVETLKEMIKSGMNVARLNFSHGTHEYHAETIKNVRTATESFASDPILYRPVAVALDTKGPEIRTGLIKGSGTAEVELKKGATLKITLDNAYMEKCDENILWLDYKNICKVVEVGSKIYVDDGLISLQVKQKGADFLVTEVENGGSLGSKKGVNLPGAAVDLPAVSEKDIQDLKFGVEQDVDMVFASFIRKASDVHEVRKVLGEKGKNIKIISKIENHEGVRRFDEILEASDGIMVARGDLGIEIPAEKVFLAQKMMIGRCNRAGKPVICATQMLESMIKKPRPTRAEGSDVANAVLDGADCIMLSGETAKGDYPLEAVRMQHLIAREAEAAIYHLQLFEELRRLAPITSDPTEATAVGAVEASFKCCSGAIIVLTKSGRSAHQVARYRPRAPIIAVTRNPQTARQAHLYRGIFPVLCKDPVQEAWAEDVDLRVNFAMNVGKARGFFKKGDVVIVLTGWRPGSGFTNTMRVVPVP

As for `CCS(=O)(=O)Nc1ccc(C2=NN(C(C)=O)C(c3ccc(OC)cc3)C2)cc1` (racemic) [Compound 1A, N-(4-(1-acetyl-5-(4-methoxyphenyl)-4,5-dihydro-1H-pyrazol-3-yl)phenyl)ethanesulfonamide], the AC50 in test [1] was ≤ 1 µM; in test [2] (Assay duration: 72 hours, Readout: CellTiter Glo) it was > 20 µM; in test [3] (setting [7]) it was 10 to 20 µM. Besides, the Emax in test [1] is 130 to 200%. For the same compound, the anti-tumor activity entry in test [4] (100 mg/kg Q2D) and in test [4] (200 mg/kg QD) was “statistically significantly anti-tumor activity” in each case. Further, the “TGI reached by day ten” value in test [4] (200 mg/kg QD) and in test [4] (400 mg/kg QD) was > 50% throughout. Further, the “Tumor Growth Inhibition (TGI)” value in test [4] (400 mg/kg QD, HT-29 xenograft, BALB/c nude mice) came out at 42%.

With `COc1ccc([C@@H]2CC(c3ccc(NS(=O)(=O)c4ccc(F)cc4)cc3)=NN2C(C)=O)cc1` [Compound 13A, (S)—N-(4-(1-acetyl-5-(4-methoxyphenyl)-4,5-dihydro-1H-pyrazol-3-yl)phenyl)-4-fluorobenzenesulfonamide], the concentration at half-maximal activity (AC50) in test [1] was ≤ 1 µM; in test [2] (96 hr, CellTiter-Glo) it was 10 to 20 µM; in test [3] (5 mM glucose), 10 to 20 µM; in test [3] (Complete media) it was 10 to 20 µM; in test [3] (setting [7]) it was 10 to 20 µM; in test [5], 10 to 20 µM. In addition, in test [6], the AC50 was > 30 µM. Besides, the Emax in test [1] was 130 to 200%.
